Measurements: publication PMC6387077, “Interaction of Halictine-Related Antimicrobial Peptides with Membrane Models” (International Journal of Molecular Sciences, 2019)

Experiments:
Pseudomonas aeruginosa = conditions: ref [19]; cited from earlier work
Text: (§1) Table 1 Amino acid sequences, physico-chemical and biological properties (µH is the hydrophobic moment, and H represents the mean hydrophobicity, calculated according to [27]), of the studied antibacterial HAL-1 peptides. Data were taken from ref. [19]. Point mutations with respect to the natural HAL-1 peptide are underlined. The Schiffer−Edmundson wheel projection of the HAL-1 and its analogs | column: Antimicrobial Activity MIC (µM) / P.^4

Bacillus subtilis = conditions: ref [19]; cited from earlier work
Text: as §1, with “B.^1” for “P.^4”

red blood cells = conditions: hemolytic activity against red blood cells; ref [19]; cited from earlier work
Text: as §1, with “Hemolytic LC50” for “Antimicrobial Activity MIC”, “(µM)” for “(µM) / P.^4”

Escherichia coli = conditions: ref [19]; cited from earlier work
Text: as §1, with “E.^3” for “P.^4”

Staphylococcus aureus = conditions: ref [19]; cited from earlier work
Text: as §1, with “S.^2” for “P.^4”

[1] = Concentration dependence of ECD and VCD spectra (aggregation); assay type: physicochemical; conditions: aqueous solution, 100 mg/mL peptide, room temperature, ECD and VCD read-out
Text: In order to clarify the discrepancy between the results of the peptide conformational analyses obtained by ECD and IR, we have complemented our study by a measurement of concentration dependencies of ECD spectra of the HAL-1 peptides (Figure 9). […] In order to determine the peptide conformational change induced by its high concentration more specifically, we have performed measurements of VCD spectra of the peptides (Figure 10) using the highest peptide concentration studied by ECD (i.e., 100 mg/mL). VCD measurements supported the results of ECD analysis, confirming that at high peptide concentration, HAL-1 and its analogs HAL-1/6, HAL-1/10, and HAL-1/20 spontaneously form the α-helical structure, indicated by a negative/positive VCD couplet in the amide I region. On the contrary, the HAL-1/2 analog (Figure 10b) seems to undergo a distinct conformational change, forming highly organized β-sheet aggregates (β-sheet fibrils) characterized by an intense five-peak VCD signal with the (−/−/+/−/−) sign pattern in the amide I and II region. […]
Concentration dependence was measured for all the peptides at the given concentrations: 0.1, 10, and 100 mg/mL. […] The α-helical fraction was calculated using a two-state model. […]
VCD spectra were measured on a dual source and dual photo-elastic modulator [67] […]

For GMWSKILGHLIR [HAL-1], the “Antimicrobial Activity MIC P.” value (Pseudomonas aeruginosa) is given as 45.0 µM, the “Antimicrobial Activity MIC B.” value (Bacillus subtilis) is given as 0.8 µM and the “Hemolytic LC50” value (red blood cells) is given as 82 µM. The “Antimicrobial Activity MIC E.” value (Escherichia coli) was 3.8 µM and the “Antimicrobial Activity MIC S.” value (Staphylococcus aureus) was 7.7 µM.
For “GMWSKILGPLIR [HAL-1/2, HAL-1 analog, His9 substituted by Pro]”, the “Aggregation at high peptide concentration” value [1] is listed as “form β-aggregates”, the “Antimicrobial Activity MIC P.” value (Pseudomonas aeruginosa) is listed as >100 µM and the “Antimicrobial Activity MIC B.” value (Bacillus subtilis) is listed as 3.6 µM. For the same sequence, the “Hemolytic LC50” value (red blood cells) was >200 µM, the “Antimicrobial Activity MIC E.” value (Escherichia coli) was 30.0 µM and the “Antimicrobial Activity MIC S.” value (Staphylococcus aureus) was >100 µM.
In the case of “GMWSKILGHLIK [HAL-1/6, HAL-1 analog, Arg12 replaced by Lys]”, the “Antimicrobial Activity MIC P.” value (Pseudomonas aeruginosa) is given as 65.0 µM, the “Antimicrobial Activity MIC B.” value (Bacillus subtilis) is given as 1.3 µM and the “Hemolytic LC50” value (red blood cells) is given as 132 µM. For the same sequence, the “Antimicrobial Activity MIC E.” value (Escherichia coli) was 7.2 µM and the “Antimicrobial Activity MIC S.” value (Staphylococcus aureus) was 15.8 µM.
In the case of “GMWKKILGKLIR [HAL-1/10, HAL-1 analog, Ser4 and His9 substituted by Lys]”, the “Antimicrobial Activity MIC P.” value (Pseudomonas aeruginosa) is given as 13.1 µM, the “Antimicrobial Activity MIC B.” value (Bacillus subtilis) is given as 0.8 µM and the “Hemolytic LC50” value (red blood cells) is given as >200 µM. For the same sequence, the “Antimicrobial Activity MIC E.” value (Escherichia coli) was 2.3 µM and the “Antimicrobial Activity MIC S.” value (Staphylococcus aureus) was 15.0 µM.
In the case of “GKWSKILGKLIR [HAL-1/20, HAL-1 analog, Met2 and His9 substituted by Lys]”, the “Antimicrobial Activity MIC B.” value (Bacillus subtilis) is given as 1.7 µM, the “Hemolytic LC50” value (red blood cells) is given as >200 µM and the “Antimicrobial Activity MIC E.” value (Escherichia coli) is given as 2.3 µM. The “Antimicrobial Activity MIC S.” value (Staphylococcus aureus) was 21.7 µM.
